Assay results reported in patent US20240209028A1, “CNP COMPOUNDS” (priority 2022, published 2024).
Starred links: 1 amine or outer side, 2 acyl side, 3 side chain; linkers in the order of their positions; H or OH if unused. Positions of bridges follow the written chain, without caps; N, C: chain ends. Residues, ends and D or L forms follow the SMILES beside them. *: point of attachment. C18 diacid = O=C(O)CCCCCCCCCCCCCCCCC(=O)*; γGlu = O=C(O)[C@H](CCC(=O)[*:2])N[*:1]; X1 = O=C(CCCCCCCCCCCCCCCCc1nnn[nH]1)*; AEEA = NCCOCCOCC(=O)O

Legend:
[1] = Thioflavin T (ThT) assay: lagtime and peptide recovery; assay type: physicochemical; details: assay terminated after 45 hours; for LagTime (h) at pH 6.5: ThT assay, pH 6.5, 37° C.
Text: The ThT assay was used to evaluate physical stability of the CNP compounds and their suitability for liquid formulation. Low physical stability of peptides may lead to amyloid fibril formation, which is observed as well-ordered, thread-like macromolecular structures in the sample eventually resulting in gel formation. This has traditionally been tested by visual inspection of the sample. However, that kind of measurement is very subjective and depending on the observer. Therefore, the application of a small molecule indicator probe is much more advantageous. Thioflavin T (ThT) is such a probe and has a distinct fluorescence signature when binding to fibrils [Naiki et al. (1989) Anal. Biochem. 177, 244-249; LeVine (1999) Methods. Enzymol. […], 274-284].
Procedure: Thioflavin T was added to the supernatant samples from Example 5 (pH 4.0 and 6.5) using an aqueous ThT stock solution to a final concentration of about 1 μM in the samples. Sample aliquots of 150 μL were placed in a 96 well microtiter plate (Packard OptiPlate™-96, white polystyrene). Usually, two to three replicas of each sample were applied to the plate. The plate was sealed and placed in a fluorescence plate reader (Fluoroskan Ascent FL) and incubated at 37° C. with orbital shaking (960 rpm; 1 mm amplitude). Fluorescence measurements were performed every 20 minutes using excitation through a 444 nm filter and measurement of emission through a 485 nm filter. Between each measurement, the plate was shaken and heated as described above and the assay was terminated after 45 hours. Fluorescence measurements for each microtiter plate well were plotted against time and the lag-time (time until an increase in ThT fluorescence was observed) was estimated.
To assess loss of dissolved peptide following 45h incubation, peptide recovery was measured as the ratio between total peak area after incubation vs. before incubation using the RP-UPLC method described below.
Measurement of LagTime and Peptide recovery % using RP-UPLC: RP-UPLC was conducted using an Acquity UPLC BEH C18 1.7 μm (2.1×30 mm) Waters column (Eluent A: 0.1% v/v % TFA in water; Eluent B: 0.1% v/v TFA in acetonitrile/water 4:1) with gradient elution (0 min: 95% A; 2 min: 20% A; 2.3 min: 20% A; 2.4 min: 95% A; 9 min: 95% A) in a flow rate of 0.9 mL/min and a column temperature of 30° C. UV-detection at 215 nm was used to assess the total peptide area.
Samples at pH 4.0 were prepared as described in Example 5 and subjected to the ThT assay as described above.
Samples at pH 6.5 were prepared as described in Example 5 and subjected to the ThT assay as described above.

[2] = High-Molecular-Weight-Protein (HMWP) formation by SEC-UPLC; assay type: physicochemical; details: increase over two weeks at 37° C., pH 6.5
Description: In order to assess the propensity of CNP compounds to form covalent dimers or oligomers when formulated the High-Molecular-Weight-Protein content of CNP compound formulations at pH 4.0 and 6.5 were determined.
Procedure: The relative amount of covalent HMWP was assessed using SEC-UPLC. SEC-UPLC was conducted using a Waters UPLC Protein BEH SEC column, 125A, 4.6×150 mm, 1.7 μm, with isocratic elution (0.3 M NaCl, 10 mM NaH2PO4 and 5 mM H3PO4, 50% (v/v) isopropanol, pH 2.4) with a flow rate of 0.3 mL/min, a column temperature at 50° C. with UV-detection at 215 nm. The total area of peaks eluting prior to the monomeric main peak was termed HMWP and given on a percentage scale relative to the total peptide peak area.
(§1) Results: HMWP Formation Following 2-Weeks Quiescent Incubation at 37° C.: Samples at pH 4.0 were prepared as described in Example 5 and the amount of HMWP was determined as described above. Samples were incubated for two weeks at 37° C. and the amount of HMWP was determined again. The increase in HMWP over two weeks incubation at 37° C. are reported in Table 10 (in case the incubation period deviated from two weeks the increase in HMWP was normalized to two weeks assuming a constant formation rate).
as §1, with “Samples” for “Results: HMWP Formation Following 2-Weeks Quiescent Incubation at 37° C.: Samples”, “6.5” for “4.0”, “11” for “10”

Structure (SMILES) | LagTime (h) at pH 6.5 [1] | 2-Week HMWP formation at pH 6.5 (%), % relative to total peak area [2] | LagTime (h) at pH 4.0 ([1]; ThT, 37° C., shaking)
CC[C@H](C)[C@@H]1NC(=O)[C@H](CCCNC(=N)N)NC(=O)[C@H](CC(=O)O)NC(=O)[C@H](CC(C)C)NC(=O)[C@@H]2CCCN2C(=O)[C@H](CC(C)C)NC(=O)CNC(=O)[C@H](Cc2ccccc2)NC(=O)[C@@H](NC(=O)CNC(=O)[C@H](CO)NC(=O)[C@H](CO)NC(=O)[C@@H](NC(=O)CNC(=O)[C@@H](NC(=O)[C@H](CCCCN)NC(=O)[C@H](CCC(N)=O)NC(=O)[C@H](C)NC(=O)CNC(=O)[C@H](Cc2c[nH]cn2)NC(=O)[C@H](Cc2ccc(O)cc2)NC(=O)COCCOCCNC(=O)COCCOCCNC(=O)CC[C@H](NC(=O)CCCCCCCCCCCCCCCCC(=O)O)C(=O)O)[C@@H](C)O)C(C)C)CSSC[C@@H](C(=O)O)NC(=O)CNC(=O)[C@H](CC(C)C)NC(=O)CNC(=O)[C@H](CO)NC(=O)[C@H](CC(C)C)NC(=O)[C@H](CO)NC(=O)CNC1=O [compound 1303] ({C18 diacid-γGlu-AEEA-AEEA}-YHGAQKTGVSSGCFGLPLDRIGSLSGLGC-OH; disulfide 13-29) | 5 h | – | –
CC[C@H](C)[C@@H]1NC(=O)[C@H](CCCNC(=N)N)NC(=O)[C@H](CC(=O)O)NC(=O)[C@H](CC(C)C)NC(=O)[C@@H]2CCCN2C(=O)[C@H](CC(C)C)NC(=O)CNC(=O)[C@H](Cc2ccccc2)NC(=O)[C@@H](NC(=O)CNC(=O)[C@H](CO)NC(=O)[C@H](CO)NC(=O)[C@H](CC(C)C)NC(=O)CNC(=O)[C@@H](NC(=O)[C@H](Cc2c[nH]cn2)NC(=O)[C@H](CCC(N)=O)NC(=O)[C@H](C)NC(=O)CNC(=O)[C@H](Cc2c[nH]cn2)NC(=O)[C@H](Cc2ccc(O)cc2)NC(=O)COCCOCCNC(=O)COCCOCCNC(=O)CC[C@H](NC(=O)CCCCCCCCCCCCCCCCC(=O)O)C(=O)O)[C@@H](C)O)CSSC[C@@H](C(=O)O)NC(=O)CNC(=O)[C@H](CC(C)C)NC(=O)CNC(=O)[C@H](CO)NC(=O)[C@H](CC(C)C)NC(=O)[C@H](CO)NC(=O)CNC1=O [compound 1304] ({C18 diacid-γGlu-AEEA-AEEA}-YHGAQHTGLSSGCFGLPLDRIGSLSGLGC-OH; disulfide 13-29) | 45 h | 1.55% | –
CC[C@H](C)[C@@H]1NC(=O)[C@H](CCCNC(=N)N)NC(=O)[C@H](CC(=O)O)NC(=O)[C@H](CC(C)C)NC(=O)[C@@H]2CCCN2C(=O)[C@H](CC(C)C)NC(=O)CNC(=O)[C@H](Cc2ccccc2)NC(=O)[C@@H](NC(=O)CNC(=O)[C@H](CO)NC(=O)[C@H](CO)NC(=O)[C@H](CC(C)C)NC(=O)CNC(=O)[C@H](CCCCN)NC(=O)[C@H](CCCCN)NC(=O)[C@H](CCC(N)=O)NC(=O)[C@H](C)NC(=O)CNC(=O)[C@H](Cc2c[nH]cn2)NC(=O)[C@H](CCC(=O)O)NC(=O)COCCOCCNC(=O)COCCOCCNC(=O)CC[C@H](NC(=O)CCCCCCCCCCCCCCCCC(=O)O)C(=O)O)CSSC[C@@H](C(=O)O)NC(=O)CNC(=O)[C@H](CC(C)C)NC(=O)CNC(=O)[C@H](CO)NC(=O)[C@H](CC(C)C)NC(=O)[C@H](CO)NC(=O)CNC1=O [compound 1310] ({C18 diacid-γGlu-AEEA-AEEA}-EHGAQKKGLSSGCFGLPLDRIGSLSGLGC-OH; disulfide 13-29) | 45 h | 0.87% | –
CC[C@H](C)[C@@H]1NC(=O)[C@H](CCCNC(=N)N)NC(=O)[C@H](CC(=O)O)NC(=O)[C@H](CC(C)C)NC(=O)[C@@H]2CCCN2C(=O)[C@H](CC(C)C)NC(=O)CNC(=O)[C@H](Cc2ccccc2)NC(=O)[C@@H](NC(=O)CNC(=O)[C@H](CCCCN)NC(=O)[C@H](CO)NC(=O)[C@H](CC(C)C)NC(=O)CNC(=O)[C@H](CCCCN)NC(=O)[C@H](CCCCN)NC(=O)[C@H](CCC(N)=O)NC(=O)[C@H](C)NC(=O)CNC(=O)[C@H](CCC(=O)O)NC(=O)[C@H](Cc2ccc(O)cc2)NC(=O)COCCOCCNC(=O)COCCOCCNC(=O)COCCOCCNC(=O)COCCOCCNC(=O)CC[C@H](NC(=O)CCCCCCCCCCCCCCCCC(=O)O)C(=O)O)CSSC[C@@H](C(=O)O)NC(=O)CNC(=O)[C@H](CC(C)C)NC(=O)CNC(=O)[C@H](CO)NC(=O)[C@H](CC(C)C)NC(=O)[C@H](CO)NC(=O)CNC1=O [compound 1375] ({C18 diacid-γGlu-AEEA-AEEA-AEEA-AEEA}-YEGAQKKGLSKGCFGLPLDRIGSLSGLGC-OH; disulfide 13-29; C-terminus assumed) | 45 h | – | –
CC[C@H](C)[C@@H]1NC(=O)[C@H](CCCNC(=N)N)NC(=O)[C@H](CC(=O)O)NC(=O)[C@H](CC(C)C)NC(=O)[C@@H]2CCCN2C(=O)[C@H](CC(C)C)NC(=O)CNC(=O)[C@H](Cc2ccccc2)NC(=O)[C@@H](NC(=O)CNC(=O)[C@H](CCC(N)=O)NC(=O)[C@H](CO)NC(=O)[C@H](CC(C)C)NC(=O)CNC(=O)[C@H](CO)NC(=O)[C@H](CCCCN)NC(=O)[C@H](CCC(N)=O)NC(=O)[C@H](C)NC(=O)CNC(=O)[C@H](Cc2c[nH]cn2)NC(=O)[C@H](Cc2ccc(O)cc2)NC(=O)[C@H](CCCCN)NC(=O)[C@H](CCCNC(=N)N)NC(=O)[C@H](C)NC(=O)COCCOCCNC(=O)COCCOCCNC(=O)CC[C@H](NC(=O)CC[C@H](NC(=O)CCCCCCCCCCCCCCCCc2nnn[nH]2)C(=O)O)C(=O)O)CSSC[C@@H](C(=O)O)NC(=O)CNC(=O)[C@H](CC(C)C)NC(=O)CNC(=O)[C@H](CO)NC(=O)[C@H](CC(C)C)NC(=O)[C@H](CO)NC(=O)CNC1=O [compound 1426] ({X1-γGlu-γGlu-AEEA-AEEA}-ARKYHGAQKSGLSQGCFGLPLDRIGSLSGLGC-OH; disulfide 16-32) | – | – | 0.33 h
CC[C@H](C)[C@@H]1NC(=O)[C@H](CCCNC(=N)N)NC(=O)[C@H](CC(=O)O)NC(=O)[C@H](CC(C)C)NC(=O)[C@@H]2CCCN2C(=O)[C@H](CC(C)C)NC(=O)CNC(=O)[C@H](Cc2ccccc2)NC(=O)[C@@H](NC(=O)CNC(=O)[C@H](CCC(N)=O)NC(=O)[C@H](CO)NC(=O)[C@H](CC(C)C)NC(=O)CNC(=O)[C@H](CCCCN)NC(=O)[C@H](CCCCN)NC(=O)[C@H](CCC(N)=O)NC(=O)[C@H](C)NC(=O)CNC(=O)[C@@H]2CCCN2C(=O)[C@H](C)NC(=O)[C@H](CCC(N)=O)NC(=O)CNC(=O)COCCOCCNC(=O)COCCOCCNC(=O)CC[C@H](NC(=O)CCCCCCCCCCCCCCCCC(=O)O)C(=O)O)CSSC[C@@H](C(=O)O)NC(=O)CNC(=O)[C@H](CC(C)C)NC(=O)CNC(=O)[C@H](CO)NC(=O)[C@H](CC(C)C)NC(=O)[C@H](CO)NC(=O)CNC1=O [compound 1484] ({C18 diacid-γGlu-AEEA-AEEA}-GQAPGAQKKGLSQGCFGLPLDRIGSLSGLGC-OH; disulfide 15-31; C-terminus assumed) | 4 h | – | –
